Results reported in patent US20260248815A1, “NEUROACTIVE STEROID FORMULATIONS AND METHODS OF USE THEREOF” (Sage Therapeutics, LLC, priority 2023, published 2026).
Like-named read-outs stand apart in the source and are kept apart here.

Assay: Open-label single-dose PK study in participants with hepatic impairment and normal hepatic function
Type: in vivo, human
Conditions: GeoMean, single 1.2 mg oral dose softgel capsules; for Cmax / AUC(0-inf) / AUC(0-t) / Tmax / Vd/F: human, in vivo, po, 1.2 mg; for Vd/F: read-out: Vz/F
Experimental: In an open-label, parallel group study to evaluate the PK, safety, and tolerability of Compound I, a single 1.2 mg oral dose of softgel capsules was administered to participants with hepatic impairment and in participants with normal hepatic function. Part 1 of the study comprised participants with moderate hepatic impairment (as determined by the Child-Pugh classifications; Class B (7 to 9 points)) and participants with normal hepatic function assigned to Cohorts 1 and 2, respectively. After Cohort 1 had been completely enrolled, participants with normal hepatic function (Cohort 2) were matched to Cohort 1 participants with respect to sex, mean age (10 years) and mean body mass index (BMI; 20%).
On Day 1, participants in Cohorts 1 and 2 received a single oral dose of 1.2 mg Compound I softgel capsules in the morning. Serial blood samples for PK analysis were collected through 168 hours post dose.

[1] = Cohort 1: moderate hepatic impairment, N 8
[2] = Cohort 2: normal hepatic function, N 7
[3] = Cohort 2: normal hepatic function, N 8

With `C[C@H](CC[C@](C)(O)C(F)(F)F)[C@H]1CC[C@H]2[C@@H]3CC=C4C[C@@](C)(O)CC[C@]4(C)[C@H]3CC[C@]12C` [Compound I] the CLz/F [1] was 5.5 L/h, the tlast [1] was 53.9 h and the CLz/F [2] was 4.71 L/h. For the same molecule, the tlast [3] was 64.3 h, the Cmax (Cohort 1: moderate hepatic impairment (Child-Pugh Class B), N 8) was 12.2 ng/mL and the AUC(0-inf) [1] was 218 ng·h/mL. It also gave an AUC(0-t) [1] of 188 ng·h/mL, a Tmax [1] of 3.69 h and a Vd/F [1] of 153 L. It also gave an AUC(0-inf) [2] of 255 ng·h/mL, an AUC(0-t) [2] of 238 ng·h/mL and a Vd/F [2] of 151 L. For the same molecule, the Cmax [3] was 15.7 ng/mL and the Tmax [3] was 3.99 h.
